From PubChem BioAssay (NCI)
Where “and” joins values, the source holds several entries; their conditions need not be identical. Identical values can stand only once.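 Exposure lasted 48 hours, with cells grown in 96-well plates and compounds tested at five concentrations. The concentration for 50% growth inhibition is given as GI50. TGI: concentration producing complete growth inhibition.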

Legend:
Assay in all cases: NCI-60 cell line screen, 48 h
[1] = system: MCF7 breast
[2] = system: RPMI-8226 leukemia
[3] = system: CCRF-CEM leukemia
[4] = system: SR leukemia
[5] = system: SF-295 CNS
[6] = system: OVCAR-8 ovarian
[7] = system: NCI-H226 lung
[8] = system: PC-3 prostate
[9] = system: KM12 colon
[10] = system: HS 578T breast

OC1C=C2C3CN(Cc4cc5c(cc43)OCO5)[C@H]2C[C@@H]1O (some centres undefined)
TGI [1]: 22.2 µM
TGI [2]: > 100 µM
TGI [3]: 7.04 µM
TGI [4]: > 100 µM
TGI [5]: > 100 µM
TGI [6]: 91.2 µM
TGI [7]: > 100 µM
TGI [8]: 22.6 µM
TGI [9]: 43.9 µM
TGI [10]: > 100 µM

O=C1CCC(NC(=O)Cc2ccc(O)cc2)C(=O)N1 (centres undefined)
TGI [5]: > 2500 µM
TGI [6]: > 2500 µM
TGI [7]: > 2500 µM
TGI [9]: > 2500 µM

O=C(O)C(Cc1ccccc1)N1C(=O)c2ccccc2C1=O (centres undefined)
TGI [1]: > 100 µM
TGI [2]: > 100 µM
TGI [3]: 65.1 µM
TGI [5]: > 100 µM
TGI [6]: > 100 µM
TGI [7]: > 100 µM
TGI [8]: > 100 µM
TGI [9]: > 100 µM
TGI [10]: > 100 µM

N=C(N)C(N=Nc1ccccc1)C(=N)N (centres undefined)
TGI [1]: > 100 µM
TGI [2]: > 100 µM
TGI [3]: 40.6 µM
TGI [5]: > 100 µM
TGI [6]: > 100 µM
TGI [7]: 73.8 µM
TGI [8]: > 100 µM
TGI [9]: > 100 µM
TGI [10]: > 100 µM

O=C1CC(N2C(=O)/C(=C/C(Cl)=C\c3ccc([N+](=O)[O-])cc3)SC2=S)C(=O)N1c1ccc(Cl)cc1 (centres undefined)
GI50 [1]: 1380 nM
TGI [1]: > 100 µM
GI50 [2]: 303 nM
TGI [2]: 0.979 µM
GI50 [3]: 486 nM
TGI [3]: 12.4 µM
GI50 [4]: 544 nM
TGI [4]: 14.2 µM
GI50 [5]: 1400 nM
TGI [5]: 3.24 µM
GI50 [6]: 832 nM
TGI [6]: > 100 µM
GI50 [7]: 1920 nM
TGI [7]: 4.65 µM
GI50 [8]: 1340 nM
TGI [8]: 4.15 µM
GI50 [10]: 1800 nM
TGI [10]: > 100 µM

N#CCc1[nH]nc2nc(SCc3ccccc3)nc(N3CCCCC3)c12
TGI [1]: 40.4 µM
TGI [2]: 43.2 µM
TGI [3]: 33.8 µM
TGI [5]: 35.3 µM
TGI [6]: > 100 µM
TGI [8]: 34 µM
TGI [9]: 33 µM
TGI [10]: 39.2 µM

CCn1cc(C(=O)O)c(=O)c2cc(F)c(N3CCN(Cn4c(O)c(N=NC(=O)c5ccncc5)c5cc(Cl)ccc54)CC3)cc21
TGI [1]: > 100 µM
TGI [4]: 31 µM
TGI [5]: > 100 µM
TGI [6]: > 100 µM
TGI [7]: > 100 µM
TGI [8]: > 100 µM
TGI [9]: > 100 µM
TGI [10]: > 100 µM

O=C1c2ccccc2-c2ccc(O)cc21
TGI [1]: 67.2 µM
TGI [2]: > 100 µM
TGI [4]: 29.7 µM
TGI [5]: 96.2 µM
TGI [6]: 42.2 µM
TGI [7]: > 100 µM
TGI [8]: 42.9 µM
TGI [9]: 38.4 µM
TGI [10]: > 100 µM

C=C1C(C2(C)C=CC(=O)OC3(C)COC(=O)CC32)C(OC=O)C(OC(=O)C(O)C(C)CC)C2(C)C(c3ccoc3)CC(OC(C)=O)C12O (centres undefined)
TGI [1]: > 100 µM
TGI [2]: > 100 µM
TGI [3]: > 100 µM
TGI [4]: > 100 µM
TGI [5]: > 100 µM
TGI [6]: > 100 µM
TGI [7]: > 100 µM
TGI [8]: > 100 µM
TGI [9]: > 100 µM
TGI [10]: > 100 µM

O=c1c2c([nH]c3nccn13)CCCC2
TGI [1]: > 10 µM
TGI [2]: > 10 µM
TGI [3]: > 10 µM
TGI [4]: > 10 µM
TGI [5]: > 10 µM
TGI [6]: > 10 µM
TGI [7]: > 10 µM
TGI [8]: > 10 µM
TGI [9]: > 10 µM
TGI [10]: > 10 µM

CC(=O)C1=C(O)C2(O)C(=O)c3c(c(C)c4ccc(C)c(O)c4c3O)CC2C(N)C1=O (centres undefined)
GI50 [1]: 2840 nM
TGI [1]: 18.3 µM
TGI [2]: 12.8 µM
TGI [3]: 18.6 µM
TGI [4]: 4.47 µM
TGI [5]: 5.6 µM
TGI [6]: 10.7 µM
TGI [7]: 8.2 µM
GI50 [8]: 754 nM
TGI [8]: 11.7 µM
TGI [9]: 8.29 µM
GI50 [10]: 1990 nM
TGI [10]: 9.48 µM

CCC(C)C(NC(=O)C(CCCCN)NC(=O)C(NC(=O)C(CCC(N)=O)NC(=O)C(CCCNC(=N)N)NC(C)=O)C(C)CC)C(=O)NC(Cc1c[nH]c2ccccc12)C(=O)NC(Cc1ccccc1)C(=O)NC(CCC(N)=O)C(=O)NC(CC(N)=O)C(=O)NC(CCCNC(=N)N)C(=O)NC(CCCNC(=N)N)C(=O)NC(CCSC)C(=O)NC(CCCCN)C(=O)NC(Cc1c[nH]c2ccccc12)C(=O)NC(CCCCN)C(=O)NC(CCCCN)C(N)=O (centres undefined)
TGI [1]: > 50 µM
TGI [2]: > 50 µM
TGI [3]: > 50 µM
TGI [4]: > 50 µM
TGI [5]: > 50 µM
TGI [6]: > 50 µM
TGI [8]: > 50 µM
TGI [9]: > 50 µM
TGI [10]: > 50 µM

O=C(NN1C(=O)/C(=C/c2ccc(Cl)cc2)N=C1c1ccccc1)c1c(Cl)c(Cl)c(Cl)c(Cl)c1-c1nc2ccccc2[nH]1
TGI [1]: 60.3 µM
TGI [3]: > 100 µM
TGI [4]: 27.1 µM
TGI [5]: > 100 µM
TGI [6]: > 100 µM
TGI [7]: 68.2 µM
TGI [8]: > 100 µM
TGI [9]: 28.5 µM
TGI [10]: 95.3 µM

Cc1c(Cl)c(=O)oc2cc(OCC(=O)c3ccccc3)ccc12
TGI [1]: > 100 µM
TGI [3]: > 100 µM
TGI [4]: 10.7 µM
TGI [5]: > 100 µM
TGI [6]: > 100 µM
TGI [7]: > 100 µM
TGI [8]: > 100 µM
TGI [9]: > 100 µM
TGI [10]: > 100 µM

C[N+]1(C)C2CCC1CC(OC(=O)C(CO)c1ccccc1)C2 (centres undefined)
TGI [1]: > 100 µM
TGI [2]: > 100 µM
TGI [3]: > 100 µM
TGI [4]: > 100 µM
TGI [5]: > 100 µM
TGI [6]: > 100 µM
TGI [7]: > 100 µM
TGI [8]: > 100 µM
TGI [9]: > 100 µM
TGI [10]: > 100 µM

O=C1OC(c2ccccc2)=N/C1=C/c1cccs1
TGI [1]: > 100 µM
TGI [2]: 44.9 µM
TGI [3]: 75.1 µM
TGI [4]: > 100 µM
TGI [5]: > 100 µM
TGI [6]: > 100 µM
TGI [7]: > 100 µM
TGI [8]: > 100 µM
TGI [9]: > 100 µM
TGI [10]: > 100 µM

Cc1nc(Cl)c(C)c(Cl)n1
TGI [1]: > 100 µM
TGI [2]: > 100 µM
TGI [3]: > 100 µM
TGI [4]: 71.8 µM
TGI [5]: > 100 µM
TGI [6]: > 100 µM
TGI [7]: > 100 µM
TGI [8]: > 100 µM
TGI [9]: > 100 µM
TGI [10]: > 100 µM

CC(=O)C1(c2ccccc2)CCCN(C)CC1 (centres undefined)
TGI [1]: > 100 µM
TGI [2]: > 100 µM
TGI [3]: > 100 µM
TGI [4]: > 100 µM
TGI [5]: > 100 µM
TGI [6]: > 100 µM
TGI [7]: > 100 µM
TGI [8]: > 100 µM
TGI [9]: > 100 µM
TGI [10]: > 100 µM

Cc1c(N)nc([C@H](CC(N)=O)NC[C@H](N)C(N)=O)nc1C(=O)N[C@H](C(=O)N[C@H](C)[C@@H](O)[C@H](C)C(=O)N[C@H](C(=O)NCCc1nc(-c2nc(C(=O)NCCC[S+](C)C)cs2)cs1)[C@@H](C)O)C(OC1OC(CO)C(O)C(O)C1OC1OC(CO)C(O)C(OC(N)=O)C1O)c1cnc[nH]1 (some centres undefined)
GI50 [1]: 1710 nM and 3160 nM
TGI [1]: 22.5 µM and 25 µM and > 100 µM
TGI [3]: 25 µM [middle of 4 runs]
GI50 [6]: 1490 nM and 1590 nM
TGI [6]: 22.8 µM and 11.2 µM and 15.2 µM
GI50 [8]: 2630 nM and 5220 nM
TGI [8]: 25 µM and > 100 µM
GI50 [9]: 4490 nM
TGI [9]: 24.5 µM and 23 µM and > 100 µM

O=C1CC(n2cccc2)c2cc(Br)sc21 (centres undefined)
TGI [1]: > 100 µM
TGI [2]: 69.9 µM
TGI [3]: 60 µM
TGI [4]: > 100 µM
TGI [5]: > 100 µM
TGI [6]: > 100 µM
TGI [7]: > 100 µM
TGI [8]: > 100 µM
TGI [9]: > 100 µM
TGI [10]: > 100 µM

CN1CCC23c4ccccc4NC1C21CCN(C)C3Nc2ccccc21
TGI [1]: > 375 µM
TGI [2]: > 182 µM
TGI [3]: > 188 µM
TGI [5]: > 375 µM
TGI [6]: > 37.5 µM
TGI [7]: > 209 µM
TGI [9]: > 284 µM

Cc1c2c(cc3c1[nH]c1ccccc13)C(c1ccc(F)cc1)=NCC2
TGI [1]: 7.78 µM
TGI [2]: 2.54 µM
TGI [3]: 7.2 µM
TGI [5]: 2.45 µM
TGI [6]: 6.68 µM
TGI [7]: 4.64 µM
TGI [9]: 7.37 µM

OC(c1ccc(-c2ccccc2)cc1)(c1ccc(-c2ccccc2)cc1)c1ccc(-c2ccccc2)cc1
TGI [1]: > 100 µM
TGI [2]: > 100 µM
TGI [4]: > 100 µM
TGI [5]: > 100 µM
TGI [6]: > 100 µM
TGI [8]: > 100 µM
TGI [9]: > 100 µM
TGI [10]: > 100 µM

CCCCC1Cc2cc(OC)ccc2-c2nc3cc(OC)ccc3n21 (centres undefined) (tested in a mixture with another compound)
TGI [1]: 33.5 µM
TGI [2]: 24.4 µM
TGI [3]: 34.1 µM
TGI [4]: 32.1 µM
TGI [6]: 31.6 µM
TGI [7]: 28.1 µM
TGI [8]: 24.7 µM
TGI [9]: 43.4 µM
TGI [10]: 25.3 µM

COC1(OC)C[C@H](C)[C@@]23O[C@]24c2cc(O)c5c(c2N[C@H]3C#C/C=C\C#C[C@]14O)C(=O)c1ccccc1C5=O
GI50 [2]: 1.5 nM
TGI [2]: 0.0604 µM and 0.0392 µM
GI50 [3]: 5 nM
TGI [3]: 0.00572 µM and 0.0539 µM
TGI [5]: 0.0076 µM
GI50 [6]: 4.3 nM
TGI [6]: 0.048 µM and 0.0756 µM
TGI [7]: 0.00755 µM
GI50 [8]: 163 nM
TGI [8]: 0.182 µM
GI50 [9]: 13.8 nM and 24.9 nM
TGI [9]: 0.0847 µM and 0.108 µM
GI50 [10]: 84.7 nM
TGI [10]: 0.516 µM and 3.6 µM

C=CCOCCCC(=O)C(=[N+]=[N-])C(=O)OC
TGI [2]: > 100 µM
TGI [3]: > 100 µM
TGI [4]: > 100 µM
TGI [5]: > 100 µM
TGI [6]: > 100 µM
TGI [7]: > 100 µM
TGI [9]: > 100 µM

O=C1c2scnc2-c2nccc3c2c1nc1ccccc13
TGI [1]: 1.03 µM
TGI [2]: > 100 µM
TGI [3]: > 100 µM
TGI [4]: > 100 µM
TGI [5]: 3.6 µM
TGI [6]: 1.21 µM
TGI [8]: > 100 µM
TGI [10]: > 100 µM

Cc1cc(C)n(C(=O)C(C)Sc2nnc(SC(C)C(=O)n3nc(C)cc3C)s2)n1 (centres undefined)
TGI [1]: > 100 µM
TGI [2]: > 100 µM
TGI [3]: > 100 µM
TGI [4]: > 100 µM
TGI [5]: > 100 µM
TGI [6]: > 100 µM
TGI [7]: > 100 µM
TGI [8]: > 100 µM
TGI [9]: > 100 µM
TGI [10]: > 100 µM
